Results: patent publication US5747448A, “Derivatives of cyclodepsipeptide PF 1022” (Meiji Seika Kaisha, Ltd., priority 1993, dated 1998)
Read-outs that look alike come from different tables or passages of the source.

Tests used:
[1] = amide bond, 24-membered ring, THF/DMF
[2] = test system: Nippostrongylus brasillensis; experiment: Anthelmintic effects on a rat intestinal nematode (N. brasillensis-infected rats); assay type: in vivo; details: male Wistar rats; for Number of remaining worms (average value ± SD): 10 mg/kg p.o. 7 days after inoculation, autopsy 10 days after inoculation; for % Effectiveness: 10 mg/kg p.o., compared with infected control group
Procedure: Anthelmintic effects of certain PF1022 derivatives on a rat intestinal nematode were tested in accordance with the following method.
Sixteen male Wistar rats were divided into eight groups (two rats per group), and about 2,000 larval worms of Nippostrongylus brasillensis were hypodermically inoculated per rat. Seven days after the inoculation, PF1022, PF1022E, PF1022-002, PF1022-003, PF1022-209, PF1022-218 and PF1022-219 were, as test substances, forcedly administered p.o. to the rats in the groups, respectively, in an amount of 10 mg/kg per rat. Upon administration, each test substance (8 mg) was dissolved in 0.2 ml of dimethyl sulfoxide and then, the resultant solution was diluted with distilled water to give a 2 ml suspension. Ten days after the inoculation,the rats were each subjected to autopsy and imaginal worms parasitic on the small intestines were counted.
As the test results, the average of remaining worms in each of the eight groups and the percent effectiveness of the test substance in each group as compared with that of the infected control group are shown in Table 4.

fowl roundworms = experiment: Fowl Roundworm Eliminating Test; assay type: in vivo; details: infected fowls, worms counted to day 7
Procedure: Test 1 Fowl Roundworm Eliminating Test Fowls (three fowls per group), which had been artificially infected with fowl roundworms and whose infection therewith had been confirmed by scatoscopy, were used as experimental animals. Upon administration of each test substance, the test substance weighed in a dose (mg) accurately calculated on the basis of the body weight (kg) of each fowl was suspended in carboxymethylcellulose-containing water, and the resulting suspension was administered orally as a single dose unit using a stomach tube. After the administration, the worms eliminated from the fowls were counted daily. Seven days after the administration, the fowl was sacrificed and autopsied and the worms remaining in its intestinal tract were counted. The percent elimination was calculated in accordance with the following calculation equation: [formula] Each test substance is indicated by the corresponding substance code name shown above in Table 1.

## CCCCCC[C@H]1OC(=O)[C@H](CC(C)C)N(C)C(=O)[C@@H](C)OC(=O)[C@H](CC(C)C)N(C)C(=O)[C@@H](Cc2ccccc2)OC(=O)[C@H](CC(C)C)N(C)C(=O)[C@@H](C)OC(=O)[C@H](CC(C)C)N(C)C1=O
[1]; from H-MeLeu-dOctA-MeLeu-dLac-MeLeu-dPhLac-MeLeu-dLac-OH, EDCI.HCl/HOBt/NMM/LiCl/NaCl/KCl/CsCl, 0.95 mM
  ring closure, isolated yield: 24.7%

## CCCC[C@H]1OC(=O)[C@H](CC(C)C)N(C)C(=O)[C@@H](Cc2ccccc2)OC(=O)[C@H](CC(C)C)N(C)C(=O)[C@@H](C)OC(=O)[C@H](CC(C)C)N(C)C(=O)[C@@H](Cc2ccccc2)OC(=O)[C@H](CC(C)C)N(C)C1=O
[1]; from H-MeLeu-dLac-MeLeu-dPhLac-MeLeu-dnorLEUA-MeLeu-dPhLac-OH, EDCI.HCl/HOBt/NMM/LiCl/NaCl/KCl/CsCl, 0.76 mM
  ring closure, isolated yield: 82%

## CC(C)C[C@@H]1NC(=O)[C@@H](C)OC(=O)[C@H](CC(C)C)N(C)C(=O)[C@@H](Cc2ccccc2)OC(=O)[C@H](CC(C)C)NC(=O)[C@@H](C)OC(=O)[C@H](CC(C)C)N(C)C(=O)[C@@H](Cc2ccccc2)OC1=O [Cyclo-(L-MeLeu-D-Lac-L-Leu-D-PhLac)2]
[1]; from H-MeLeu-dLac-Leu-dPhLac-MeLeu-dLac-Leu-dPhLac-OH, EDCI.HCl/HOBt/NMM, LiCl/KCl/NaCl/CsCl, 0.96 mM, 25.0 °C, 3 steps
  ring closure, isolated yield: 55.8%

## CCCCCC[C@H]1OC(=O)[C@H](CC(C)C)N(C)C(=O)[C@@H](C)OC(=O)[C@H](CC(C)C)N(C)C(=O)[C@@H](CCCCCC)OC(=O)[C@H](CC(C)C)N(C)C(=O)[C@@H](C)OC(=O)[C@H](CC(C)C)N(C)C1=O [Cyclo-(L-MeLeu-D-OctA-L-MeLeu-D-Lac)2]
[1]; from H-MeLeu-dOctA-MeLeu-dLac-MeLeu-dOctA-MeLeu-dLac-OH, EDCI.HCl/HOBt/NMM/LiCl/NaCl/KCl/CsCl, 0.81 mM
  ring closure, isolated yield: 92%

## CC(C)C[C@@H]1NC(=O)[C@@H](Cc2ccccc2)OC(=O)[C@H](CC(C)C)N(C)C(=O)[C@@H](C)OC(=O)[C@H](CC(C)C)NC(=O)[C@@H](Cc2ccccc2)OC(=O)[C@H](CC(C)C)N(C)C(=O)[C@@H](C)OC1=O [Cyclo-(L-MeLeu-D-PhLac-L-Leu-D-Lac)2]
[1]; from H-MeLeu-dPhLac-Leu-dLac-MeLeu-dPhLac-Leu-dLac-OH, EDCI.HCl/HOBt/NMM, LiCl/KCl/NaCl/CsCl, 0.96 mM, 25.0 °C, 3 steps
  ring closure, isolated yield: 62%

## CC(C)C[C@H]1C(=O)O[C@H](C(C)C)C(=O)N(C)[C@@H](CC(C)C)C(=O)O[C@H](C)C(=O)N(C)[C@@H](CC(C)C)C(=O)O[C@H](C(C)C)C(=O)N(C)[C@@H](CC(C)C)C(=O)O[C@H](C)C(=O)N1C [Cyclo-(L-MeLeu-D-VALA-L-MeLeu-D-Lac)2]
[1]; from H-MeLeu-dVALA-MeLeu-dLac-MeLeu-dVALA-MeLeu-dLac-OH, EDCI.HCl/HOBt/NMM/LiCl/NaCl/KCl/CsCl, 0.88 mM
  ring closure, isolated yield: 92%

## CC[C@@H](C)[C@H]1OC(=O)[C@H](CC(C)C)N(C)C(=O)[C@@H](Cc2ccccc2)OC(=O)[C@H](CC(C)C)N(C)C(=O)[C@@H]([C@H](C)CC)OC(=O)[C@H](CC(C)C)N(C)C(=O)[C@@H](Cc2ccccc2)OC(=O)[C@H](CC(C)C)N(C)C1=O [Cyclo-(L-MeLeu-D-isoLEUA-L-MeLeu-D-PhLac)2]
[1]; from H-MeLeu-disoLEUA-MeLeu-dPhLac-MeLeu-disoLEUA-MeLeu-dPhLac-OH, EDCI.HCl/HOBt/NMM/LiCl/NaCl/KCl/CsCl, 0.87 mM, 3 steps
  ring closure, isolated yield: 29%

## CCCC[C@H]1OC(=O)[C@H](CC(C)C)N(C)C(=O)[C@@H](Cc2ccccc2)OC(=O)[C@H](CC(C)C)N(C)C(=O)[C@@H](CCCC)OC(=O)[C@H](CC(C)C)N(C)C(=O)[C@@H](Cc2ccccc2)OC(=O)[C@H](CC(C)C)N(C)C1=O [Cyclo-(L-MeLeu-D-norLEUA-L-MeLeu-D-PhLac)2]
[1]; from H-MeLeu-dnorLEUA-MeLeu-dPhLac-MeLeu-dnorLEUA-MeLeu-dPhLac-OH, EDCI.HCl/HOBt/NMM/LiCl/NaCl/KCl/CsCl, 0.82 mM, 3 steps
  ring closure, isolated yield: 35.8%

## CC(C)C[C@H]1C(=O)O[C@H](Cc2ccc(O)cc2)C(=O)N(C)[C@@H](CC(C)C)C(=O)O[C@H](C)C(=O)N(C)[C@@H](CC(C)C)C(=O)O[C@H](Cc2ccccc2)C(=O)N(C)[C@@H](CC(C)C)C(=O)O[C@H](C)C(=O)N1C [H-MeLeu-dLac-MeLeu-dTYRA-MeLeu-dLac-MeLeu-dPhLac-OH]
[1]; from H-MeLeu-dLac-MeLeu-dTYRA-MeLeu-dLac-MeLeu-dPhLac-OH, EDCI.HCl/HOBt/NMM/LiCl/KCl/NaCl/CsCl, 0.89 mM
  ring closure, isolated yield: 33%

## CC(C)C[C@H]1C(=O)O[C@H](Cc2ccc(O)cc2)C(=O)N(C)[C@@H](CC(C)C)C(=O)O[C@H](C)C(=O)N(C)[C@@H](CC(C)C)C(=O)O[C@H](Cc2ccccc2)C(=O)N(C)[C@@H](CC(C)C)C(=O)O[C@H](C)C(=O)N1C [PF1022 E, cyclo-(-L-Meleu-D-Lac-L-MeLeu-D-TYRA-L-MeLeu-D-Lac-L-MeLeu-D-PhLac)]
[2]
  Number of remaining worms (average value ± SD): 2175 ± 134.4
  % Effectiveness: 0%
Fowl roundworms; single oral dose 0.5 mg/kg
  % Elimination: 70%

## CC(C)CC1C(=O)OC(C)C(=O)N(C)C(CC(C)C)C(=O)OC(C)C(=O)N(C)C(CC(C)C)C(=O)OC(C)C(=O)N(C)C(CC(C)C)C(=O)OC(C)C(=O)N1C [PF1022-002, cyclo-(L-MeLeu-D-Lac-)4]
[2]
  Number of remaining worms (average value ± SD): 1976.5
  % Effectiveness: 2.7%

## COc1ccc(C[C@H]2OC(=O)[C@H](CC(C)C)N(C)C(=O)[C@@H](C)OC(=O)[C@H](CC(C)C)N(C)C(=O)[C@@H](Cc3ccccc3)OC(=O)[C@H](CC(C)C)N(C)C(=O)[C@@H](C)OC(=O)[C@H](CC(C)C)N(C)C2=O)cc1 [PF1022-005, cyclo-(-L-MeLeu-D-Lac-L-MeLeu-D-PhLac-L-MeLeu-D-Lac-L-MeLeu-D-TYRA(OMe)]
Fowl roundworms; single oral dose 0.5 mg/kg
  % Elimination: 73%
Fowl roundworms; single oral dose 1.0 mg/kg
  % Elimination: 89%
Fowl roundworms; single oral dose 2.0 mg/kg
  % Elimination: 100%

## CCOc1ccc(C[C@H]2OC(=O)[C@H](CC(C)C)N(C)C(=O)[C@@H](C)OC(=O)[C@H](CC(C)C)N(C)C(=O)[C@@H](Cc3ccccc3)OC(=O)[C@H](CC(C)C)N(C)C(=O)[C@@H](C)OC(=O)[C@H](CC(C)C)N(C)C2=O)cc1 [PF1022-016, cyclo-(L-MeLeu-D-PhLac-L-MeLeu-D-Lac-L-MeLeu-D-TYRA(OEt)-L-MeLeu-D-Lac)]
Fowl roundworms; single oral dose 0.5 mg/kg
  % Elimination: 55%
Fowl roundworms; single oral dose 1.0 mg/kg
  % Elimination: 61%
Fowl roundworms; single oral dose 2.0 mg/kg
  % Elimination: 100%

## CCCCOc1ccc(C[C@H]2OC(=O)[C@H](CC(C)C)N(C)C(=O)[C@@H](C)OC(=O)[C@H](CC(C)C)N(C)C(=O)[C@@H](Cc3ccccc3)OC(=O)[C@H](CC(C)C)N(C)C(=O)[C@@H](C)OC(=O)[C@H](CC(C)C)N(C)C2=O)cc1 [PF1022-021, cyclo-(L-MeLeu-D-PhLac-L-MeLeu-D-Lac-L-MeLeu-D-TYRA(O-n-Bu)-L-MeLeu-D-Lac)]
Fowl roundworms; single oral dose 1.0 mg/kg
  % Elimination: 41%
Fowl roundworms; single oral dose 2.0 mg/kg
  % Elimination: 90%

## CC(C)CC1NC(=O)C(Cc2ccccc2)OC(=O)C(CC(C)C)N(C)C(=O)C(C)OC(=O)C(CC(C)C)NC(=O)C(Cc2ccccc2)OC(=O)C(CC(C)C)N(C)C(=O)C(C)OC1=O [PF1022-218, cyclo-(L-MeLeu-D-PhLac-L-Leu-D-Lac)2]
[2]
  Number of remaining worms (average value ± SD): 2400 ± 362.0
  % Effectiveness: 0%

## CC(C)CC1C(=O)OC(CC2CCCCC2)C(=O)N(C)C(CC(C)C)C(=O)OC(C)C(=O)N(C)C(CC(C)C)C(=O)OC(CC2CCCCC2)C(=O)N(C)C(CC(C)C)C(=O)OC(C)C(=O)N1C (stereo not shown) [PF1022-ADH, dodecahydro-PF1022]
Fowl roundworms; single oral dose 5 mg/kg
  % Elimination: 30%

## CC(C)CC1C(=O)OC(CC2CCCCC2)C(=O)N(C)C(CC(C)C)C(=O)OC(C)C(=O)N(C)C(CC(C)C)C(=O)OC(Cc2ccccc2)C(=O)N(C)C(CC(C)C)C(=O)OC(C)C(=O)N1C (stereo not shown) [PF1022-AHH, hexahydro-PF1022]
Fowl roundworms; single oral dose 5 mg/kg
  % Elimination: 62%

## cyclo-(L-MeLeu-D-PhLac-L-MeLeu-D-Lac-L-MeLeu-D-TYRA(O-All)-L-MeLeu-D-Lac) [PF1022-020]
Fowl roundworms; single oral dose 1.0 mg/kg
  % Elimination: 54%
Fowl roundworms; single oral dose 2.0 mg/kg
  % Elimination: 100%

## cyclo-(L-MeLeu-D-PhLac-L-MeLeu-D-Lac-L-MeLeu-D-TYRA(OBn)-L-MeLeu-D-Lac) [PF1022-022]
Fowl roundworms; single oral dose 1.0 mg/kg
  % Elimination: 40%
Fowl roundworms; single oral dose 2.0 mg/kg
  % Elimination: 93%
Fowl roundworms; single oral dose 5 mg/kg
  % Elimination: 84%

## cyclo-(L-MeLeu-D-VALA-L-MeLeu-D-Lac)2 [PF1022-209]
[2]
  Number of remaining worms (average value ± SD): 827 ± 388.9
[2]; 10 mg/kg
  % Effectiveness: 59.3%
[2]; listed as PF 1022-209, 10 mg/kg
  % Effectiveness: 59.8%
